The term IC50 denotes the concentration needed to halve the response being measured.

A value given as a limit tells only on which side of the number the result lay.

Chain of human integrin αvβ6 (P06756 31-992): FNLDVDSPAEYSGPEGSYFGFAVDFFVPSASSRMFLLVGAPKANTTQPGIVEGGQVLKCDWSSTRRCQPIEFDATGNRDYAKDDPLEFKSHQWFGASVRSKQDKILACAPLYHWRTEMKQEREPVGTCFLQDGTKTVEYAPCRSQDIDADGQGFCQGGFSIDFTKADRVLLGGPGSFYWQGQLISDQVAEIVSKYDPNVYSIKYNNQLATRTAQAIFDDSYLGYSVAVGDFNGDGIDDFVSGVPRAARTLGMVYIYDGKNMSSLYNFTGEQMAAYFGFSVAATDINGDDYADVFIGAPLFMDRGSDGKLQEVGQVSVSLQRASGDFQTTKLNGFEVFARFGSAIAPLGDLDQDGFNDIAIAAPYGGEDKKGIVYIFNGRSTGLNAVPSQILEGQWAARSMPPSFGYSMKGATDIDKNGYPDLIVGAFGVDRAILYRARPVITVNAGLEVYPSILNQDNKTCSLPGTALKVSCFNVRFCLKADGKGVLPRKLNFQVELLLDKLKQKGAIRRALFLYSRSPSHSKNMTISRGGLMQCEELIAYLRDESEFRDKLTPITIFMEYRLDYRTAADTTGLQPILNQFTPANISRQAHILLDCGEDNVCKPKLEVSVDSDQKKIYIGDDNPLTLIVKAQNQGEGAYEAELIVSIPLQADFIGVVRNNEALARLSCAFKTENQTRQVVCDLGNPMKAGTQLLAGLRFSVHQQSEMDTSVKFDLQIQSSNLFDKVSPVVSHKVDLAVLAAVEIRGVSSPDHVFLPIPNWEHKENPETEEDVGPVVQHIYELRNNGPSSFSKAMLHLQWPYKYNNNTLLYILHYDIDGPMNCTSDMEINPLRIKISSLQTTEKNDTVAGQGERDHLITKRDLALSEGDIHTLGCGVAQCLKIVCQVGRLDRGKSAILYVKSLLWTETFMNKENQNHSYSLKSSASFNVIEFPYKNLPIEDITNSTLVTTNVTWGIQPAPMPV
Chain of human integrin αvβ6 (P18564 22-707): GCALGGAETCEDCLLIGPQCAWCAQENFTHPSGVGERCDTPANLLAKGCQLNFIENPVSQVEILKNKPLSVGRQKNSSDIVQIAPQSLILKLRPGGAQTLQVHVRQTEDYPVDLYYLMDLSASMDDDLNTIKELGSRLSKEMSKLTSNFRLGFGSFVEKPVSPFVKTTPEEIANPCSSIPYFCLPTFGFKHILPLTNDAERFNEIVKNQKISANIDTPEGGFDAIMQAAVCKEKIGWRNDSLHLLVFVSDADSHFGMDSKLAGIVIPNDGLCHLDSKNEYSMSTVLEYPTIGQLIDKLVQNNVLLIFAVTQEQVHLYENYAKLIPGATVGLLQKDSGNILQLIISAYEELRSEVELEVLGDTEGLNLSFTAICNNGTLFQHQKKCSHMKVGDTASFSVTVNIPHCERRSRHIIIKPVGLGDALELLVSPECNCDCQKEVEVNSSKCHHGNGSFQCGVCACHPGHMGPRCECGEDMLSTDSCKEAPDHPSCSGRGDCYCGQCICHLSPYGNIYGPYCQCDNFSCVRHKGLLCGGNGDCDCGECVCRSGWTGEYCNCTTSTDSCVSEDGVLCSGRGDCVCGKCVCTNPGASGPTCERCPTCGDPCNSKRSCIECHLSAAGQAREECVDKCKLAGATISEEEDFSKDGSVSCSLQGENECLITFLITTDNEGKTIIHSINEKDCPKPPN

This assay deals with human integrin αvβ6 (Homo sapiens (Human), UniProt P06756+P18564). Description: Proximity-based integrin receptor binding assay (ALPHASCREEN) for inhibitor potency. The note with it: inhibition of binding of TGF-b1 LAP to human integrin αvβ6; values given in ranges. The procedure, abridged:
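AlphaScreen: integrin, compound, TGF-b1 LAP, biotinylated anti-LAP antibody and acceptor beads incubated 2 hours, then streptavidin donor beads 30 minutes, at room temperature in 50 mM Tris-HCl pH 7.5, 0.1% BSA, 1 mM CaCl2 and MgCl2. Excitation 680 nm, emission 520-620 nm; IC50 by four-parameter logistic fit.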
For orientation: Bead proximity is the source of the signal in Alpha formats.
Take `CC(C)(C)OC(=O)N1CC[C@H](OC(=O)N[C@@H](CCO[C@H]2C[C@H](CCc3ccc4c(n3)NCCC4)C2)C(=O)O)C1` [Compound 133, N—((((S)-1-(tert-butoxycarbonyl)pyrrolidin-3-yl)oxy)carbonyl)-O-(trans-3-(2-(5,6,7,8-tetrahydro-1,8-naphthyridin-2-yl)ethyl)cyclobutyl)homoserine]: the half-maximal inhibitory concentration (IC50) is under 50 nM.
The result for `O=C(N[C@@H](CCO[C@H]1C[C@H](CCc2ccc3c(n2)NCCC3)C1)C(=O)O)O[C@H]1CCNC1` [Compound 134, N—((((S)-pyrrolidin-3-yl)oxy)carbonyl)-O-(trans-3-(2-(5,6,7,8-tetrahydro-1,8-naphthyridin-2-yl)ethyl)cyclobutyl)homoserine] reads 50 to 250 nM.
The result for `CS(=O)(=O)CCCC(=O)N[C@@H](CCO[C@H]1C[C@H](CCc2ccc3c(n2)NCCC3)C1)C(=O)O` [Compound 135, N-(4-(methylsulfonyl)butanoyl)-O-(trans-3-(2-(5,6,7,8-tetrahydro-1,8-naphthyridin-2-yl)ethyl)cyclobutyl)homoserine] reads 50 to 250 nM; that for `CS(=O)(=O)N1CC[C@H](OC(=O)N[C@@H](CCO[C@H]2C[C@H](CCc3ccc4c(n3)NCCC4)C2)C(=O)O)C1` [Compound 136, N—((((S)-1-(methylsulfonyl)pyrrolidin-3-yl)oxy)carbonyl)-O-(trans-3-(2-(5,6,7,8-tetrahydro-1,8-naphthyridin-2-yl)ethyl)cyclobutyl)homoserine], under 50 nM; that for `CC(=O)N1CC[C@H](OC(=O)N[C@@H](CCO[C@H]2C[C@H](CCc3ccc4c(n3)NCCC4)C2)C(=O)O)C1` [Compound 137, N—((((S)-1-acetylpyrrolidin-3-yl)oxy)carbonyl)-O-(trans-3-(2-(5,6,7,8-tetrahydro-1,8-naphthyridin-2-yl)ethyl)cyclobutyl)homoserine], 250 to 1000 nM.
`CC(C)(C)OC(=O)N1CC[C@@H](OC(=O)N[C@@H](CCO[C@H]2C[C@H](CCc3ccc4c(n3)NCCC4)C2)C(=O)O)C1` [Compound 138, N—((((R)-1-(tert-butoxycarbonyl)pyrrolidin-3-yl)oxy)carbonyl)-O-(trans-3-(2-(5,6,7,8-tetrahydro-1,8-naphthyridin-2-yl)ethyl)cyclobutyl)homoserine]: the IC50 lay in the range of 50 to 250 nM.
The result for `CC(=O)N1CC[C@@H](OC(=O)N[C@@H](CCO[C@H]2C[C@H](CCc3ccc4c(n3)NCCC4)C2)C(=O)O)C1` [Compound 139, N—((((R)-1-acetylpyrrolidin-3-yl)oxy)carbonyl)-O-(trans-3-(2-(5,6,7,8-tetrahydro-1,8-naphthyridin-2-yl)ethyl)cyclobutyl)homoserine] reads over 1000 nM; that for `C[C@@H](OC(=O)N[C@@H](CCO[C@H]1C[C@H](CCc2ccc3c(n2)NCCC3)C1)C(=O)O)c1ccccc1` [Compound 140, N—(((R)-1-phenylethoxy)carbonyl)-O-(trans-3-(2-(5,6,7,8-tetrahydro-1,8-naphthyridin-2-yl)ethyl)cyclobutyl)homoserine], 250 to 1000 nM; that for `C[C@H](OC(=O)N[C@@H](CCO[C@H]1C[C@H](CCc2ccc3c(n2)NCCC3)C1)C(=O)O)c1ccccc1` [Compound 141, N—(((S)-1-phenylethoxy)carbonyl)-O-(trans-3-(2-(5,6,7,8-tetrahydro-1,8-naphthyridin-2-yl)ethyl)cyclobutyl)homoserine], under 50 nM.
In the case of `O=C(NC(CCO[C@H]1C[C@H](CCc2ccc3c(n2)NCCC3)C1)C(=O)O)OC1CCC1c1ccccc1` (stereo partly drawn) [Compound 142, N-((2-phenylcyclobutoxy)carbonyl)-O-(trans-3-(2-(5,6,7,8-tetrahydro-1,8-naphthyridin-2-yl)ethyl)cyclobutyl)homoserine], the IC50 lay within 50 to 250 nM.
As to `O=C(N[C@@H](CCO[C@H]1C[C@H](CCc2ccc3c(n2)NCCC3)C1)C(=O)O)O[C@H]1C[C@@H](c2ccccc2)C1` [Compound 143, N-((cis-3-phenylcyclobutoxy)carbonyl)-O-(trans-3-(2-(5,6,7,8-tetrahydro-1,8-naphthyridin-2-yl)ethyl)cyclobutyl)homoserine], the 50% inhibitory concentration (IC50) was 250 to 1000 nM.
On to `O=C(N[C@@H](CCO[C@H]1C[C@H](CCc2ccc3c(n2)NCCC3)C1)C(=O)O)O[C@@H]1CCCC[C@H]1c1ccccc1` [Compound 144, N-((((1R,2S)-2-phenylcyclohexyl)oxy)carbonyl)-O-(trans-3-(2-(5,6,7,8-tetrahydro-1,8-naphthyridin-2-yl)ethyl)cyclobutyl)homoserine], for which the half-maximal inhibitory concentration (IC50) fell in the range of 250 to 1000 nM.
The result for `O=C(N[C@@H](CCO[C@H]1C[C@H](CCc2ccc3c(n2)NCCC3)C1)C(=O)O)O[C@H]1CCCC[C@@H]1c1ccccc1` [Compound 146, N-((((1S,2R)-2-phenylcyclohexyl)oxy)carbonyl)-O-(trans-3-(2-(5,6,7,8-tetrahydro-1,8-naphthyridin-2-yl)ethyl)cyclobutyl)homoserine] reads 50 to 250 nM; that for `CC(C)(C)OC(=O)N1CC(OC(=O)N[C@@H](CCO[C@H]2C[C@H](CCc3ccc4c(n3)NCCC4)C2)C(=O)O)C1` [Compound 147, N-(((1-(tert-butoxycarbonyl)azetidin-3-yl)oxy)carbonyl)-O-(trans-3-(2-(5,6,7,8-tetrahydro-1,8-naphthyridin-2-yl)ethyl)cyclobutyl)homoserine], under 50 nM; that for `O=C(N[C@@H](CCO[C@H]1C[C@H](CCc2ccc3c(n2)NCCC3)C1)C(=O)O)O[C@H]1CC[C@H](c2ccccc2)CC1` [Compound 148, N-(((trans-4-phenylcyclohexyl)oxy)carbonyl)-O-(trans-3-(2-(5,6,7,8-tetrahydro-1,8-naphthyridin-2-yl)ethyl)cyclobutyl)homoserine], 250 to 1000 nM.
The result for `O=C(N[C@@H](CCO[C@H]1C[C@H](CCc2ccc3c(n2)NCCC3)C1)C(=O)O)O[C@H]1CC[C@@H](c2ccccc2)CC1` [Compound 149, N-(((cis-4-phenylcyclohexyl)oxy)carbonyl)-O-(trans-3-(2-(5,6,7,8-tetrahydro-1,8-naphthyridin-2-yl)ethyl)cyclobutyl)homoserine] reads 50 to 250 nM.
For `CC(=O)N1CC(OC(=O)N[C@@H](CCO[C@H]2C[C@H](CCc3ccc4c(n3)NCCC4)C2)C(=O)O)C1` [Compound 150, N-(((1-acetylazetidin-3-yl)oxy)carbonyl)-O-(trans-3-(2-(5,6,7,8-tetrahydro-1,8-naphthyridin-2-yl)ethyl)cyclobutyl)homoserine], the IC50 fell in the range of 250 to 1000 nM.
Turning to `CC(=O)NC[C@H](C)OC(=O)N[C@@H](CCO[C@H]1C[C@H](CCc2ccc3c(n2)NCCC3)C1)C(=O)O` [Compound 151, N—((((S)-1-acetamidopropan-2-yl)oxy)carbonyl)-O-(trans-3-(2-(5,6,7,8-tetrahydro-1,8-naphthyridin-2-yl)ethyl)cyclobutyl)homoserine], the IC50 is under 50 nM.
For the compound `C[C@@H](CNC(=O)OC(C)(C)C)OC(=O)N[C@@H](CCO[C@H]1C[C@H](CCc2ccc3c(n2)NCCC3)C1)C(=O)O` [Compound 152, N—((((S)-1-((tert-butoxycarbonyl)amino)propan-2-yl)oxy)carbonyl)-O-(trans-3-(2-(5,6,7,8-tetrahydro-1,8-naphthyridin-2-yl)ethyl)cyclobutyl)homoserine], the 50% inhibitory concentration (IC50) is under 50 nM.

(Values after US11180494B2, “Substituted amino acids as integrin inhibitors” (Pliant Therapeutics, Inc., priority 2018, dated 2021).)
